Measured values reported in US7589097B2, “Triazol[4,5-d] pyramidine derivatives and their use as purinergic receptor antagonists” (Vernalis Research Limited, priority 2001, dated 2009).

Structure (SMILES)	melting point
Cc1cccc(Cn2nnc3c(-c4ccc(C)o4)nc(N)nc32)n1 [Example 59, 7-(5-methyl-2-furyl)-3-(6-methyl-2-pyridylmethyl)-3H-[1,2,3]triazolo[4,5-d]pyrimidine-5-amine]	187.9 to 188.7 °C
Cc1ccc(-c2nc(N)nc3c2nnn3Cc2ccc(N)c(F)c2)o1 [Example 174, 3-(4-amino-3-fluorobenzyl)-7-(5-methyl-2-furyl)-3H-[1,2,3]triazolo[4,5-d]pyrimidine-5-amine]	> 200 °C (dec.)
Cc1ccc(N)c(Cn2nnc3c(-c4ccco4)nc(N)nc32)c1 [Example 104, 3-(2-amino-5-methylbenzyl)-7-(2-furyl)-3H-[1,2,3]triazolo[4,5-d]pyrimidine-5-amine]	249.9 to 250.5 °C
Cc1cccc(C(=O)C(C)n2nnc3c(-c4ccco4)nc(N)nc32)n1 (centres unmarked) [Example 190, 2-(5-amino-7-(2-furyl)-3H-[1,2,3]triazolo[4,5-d]pyrimidin-3-yl)-1-(6-methyl-2-pyridyl)propanone]	290.2 to 290.3 °C
Nc1nc(-c2ccco2)c2nnn(Cc3ccc4c(c3)CCO4)c2n1 [Example 166, 3-(2,3-dihydrobenzofuran-5-ylmethyl)-7-(2-furyl)-3H-[1,2,3]triazolo[4,5-d]pyrimidine-5-amine]	210.3 to 211.2 °C
Nc1nc(-c2ccco2)c2nnn(Cc3cc(F)ccc3F)c2n1 [Example 65, 3-(2,5-difluorobenzyl)-7-(2-furyl)-3H-[1,2,3]triazolo[4,5-d]pyrimidine-5-amine]	208.1 to 208.2 °C
Nc1nc(-c2ccco2)c2nnn(Cc3cccc(CN4C(=O)c5ccccc5C4=O)n3)c2n1 [Example 164, 7-(2-furyl)-3-(6-phthalimidomethyl-2-pyridylmethyl)-3H-[1,2,3]triazolo[4,5-d]pyrimidine-5-amine]	120.1 to 121 °C
Cc1ccc(-c2nc(N)nc3c2nnn3Cc2ccc(N)c(C)c2)o1 [Example 124, 3-(4-amino-3-methylbenzyl)-7-(5-methyl-2-furyl)-3H-[1,2,3]triazolo[4,5-d]pyrimidine-5-amine]	215.7 to 216.7 °C
Nc1nc(-c2ccco2)c2nnn(CC(=O)NCc3ccccn3)c2n1 [Example 53, (5-amino-7-(2-furyl)-3H-[1,2,3]triazolo[4,5-d]pyrimidin-3-yl)-N-(2-pyridylmethyl)acetamide]	256.1 to 256.4 °C
CC(c1ccc(C(F)(F)F)cc1)n1nnc2c(-c3ccco3)nc(N)nc21 (centres unmarked) [Example 256, 7-(2-furyl)-3-(1-(4-frifluoromethylphenyl)ethyl)-3H-[1,2,3]triazolo[4,5-d]pyrimidine-5-amine]	167.6 to 168.1 °C
CC(C)(C)OC(=O)NCc1ccccc1Cn1nnc2c(-c3ccco3)nc(N)nc21 [Example 157, tert-butyl N-(2-(5-amino-7-(2-furyl)-3H-[1,2,3]triazolo[4,5-d]pyrimidine-3-ylmethyl)benzyl)carbamate]	204.2 to 204.4 °C
CS(=O)(=O)N(Cc1cccc(Cn2nnc3c(-c4ccco4)nc(N)nc32)n1)Cc1cccc(Cn2nnc3c(-c4ccco4)nc(N)nc32)n1 [Example 237, N,N-bis(6-(5-amino-7-(2-furyl)-3H-[1,2,3]triazolo[4,5-d]pyrimidine-3-ylmethyl)-2-pyridylmethyl)methanesulphonamide]	259.3 to 259.4 °C
Nc1ccc(F)c(Cn2nnc3c(-c4ccco4)nc(N)nc32)c1 [Example 79, 3-(5-amino-2-fluorobenzyl)-7-(2-furyl)-3H-[1,2,3]triazolo[4,5-d]pyrimidine-5-amine]	308.2 to 308.3 °C
C=CCOCc1cccc(Cn2nnc3c(-c4ccc(C)o4)nc(N)nc32)n1 [Example 186, 3-(6-allyloxymethyl-2-pyridylmethyl)-7-(5-methyl-2-furyl)-3H-[1,2,3]triazolo[4,5-d]pyrimidine-5-amine]	149 to 149.3 °C
Nc1nc(-c2ccco2)c2nnn(Cc3cnccn3)c2n1 [Example 128, 7-(2-furyl)-3-(2-pyrazinylmethyl)-3H-[1,2,3]triazolo[4,5-d]pyrimidine-5-amine]	129.1 to 131 °C
CC(C)(C)OC(=O)n1ccc2cc(Cn3nnc4c(-c5ccco5)nc(N)nc43)ccc21 [Example 142, tert-butyl 5-(5-amino-7-(2-furyl)-3H-[1,2,3]triazolo[4,5-d]pyrimidine-3-ylmethyl)indole-1-carboxylate]	189 to 189.1 °C
CCc1cccc(Cn2nnc3c(-c4ccco4)nc(N)nc32)n1 [Example 135, 3-(6-ethyl-2-pyridylmethyl)-7-(2-furyl)-3H-[1,2,3]triazolo[4,5-d]pyrimidine-5-amine]	208.6 to 208.8 °C
CCCc1cccc(Cn2nnc3c(-c4ccco4)nc(N)nc32)n1 [Example 216, 7-(2-furyl)-3-(6-n-propyl-2-pyridylmethyl)-3H-[1,2,3]triazolo[4,5-d]pyrimidine-5-amine]	178.3 to 178.5 °C
CC(c1cccc(F)c1)n1nnc2c(-c3ccco3)nc(N)nc21 (centres unmarked) [Example 260, 3-(1-(3-fluorophenyl)ethyl)-7-(2-furyl)-3H-[1,2,3]triazolo[4,5-d]pyrimidine-5-amine]	150.3 to 151 °C
Cc1ccc(-c2nc(N)nc3c2nnn3Cc2c(F)cccc2F)o1 [Example 60, 3-(2,6-difluorobenzyl)-7-(5-methyl-2-furyl)-3H-[1,2,3]triazolo[4,5-d]pyrimidine-5-amine]	209.7 to 209.8 °C
CC(C)(C)OC(=O)n1ccc2c(Cn3nnc4c(-c5ccco5)nc(N)nc43)cccc21 [Example 138, tert-butyl 4-(5-amino-7-(2-furyl)-3H-[1,2,3]triazolo[4,5-d]pyrimidine-3-ylmethyl)indole-1-carboxylate]	58.5 to 62.6 °C
COCc1cccc(Cn2nnc3c(-c4ccco4)nc(N)nc32)n1 [Example 112, 7-(2-furyl)-3-(6-methoxymethyl-2-pyridylmethyl)-3H-[1,2,3]triazolo[4,5-d]pyrimidine-5-amine]	190.4 to 191.4 °C
CN(Cc1cccc(Cn2nnc3c(-c4ccco4)nc(N)nc32)n1)S(C)(=O)=O [Example 239, N-(6-(5-amino-7-(2-furyl)-3H-[1,2,3]triazolo[4,5-d]pyrimidin-3-ylmethyl)-2-pyridylmethyl)-N-methyl methanesulphonamide]	205.8 to 206 °C
Cc1cc(Cn2nnc3c(-c4ccco4)nc(N)nc32)cc(C)c1[N+](=O)[O-] [Example 259, 3-(3,5-dimethyl-4-nitrobenzyl)-7-(2-furyl)-3H-[1,2,3]triazolo[4,5-d]pyrimidine-5-amine]	228.4 to 228.5 °C

Results, then the compound that gave them:

melting point	Structure (SMILES)
215.9 to 217.5 °C	CC(C)CC(=O)NCc1cccc(Cn2nnc3c(-c4ccco4)nc(N)nc32)c1 [Example 85, N-(3-(5-amino-7-(2-furyl)-3H-[1,2,3]triazolo[4,5-d]pyrimidin-3-ylmethyl)benzyl)-3-methylbutanamide]
214.6 to 216.2 °C	Cc1ccc(-c2nc(N)nc3c2nnn3Cc2ccc([N+](=O)[O-])c(C)c2)o1 [Example 123, 7-(5-methyl-2-furyl)-3-(3-methyl-4-nitrobenzyl)-3H-[1,2,3]triazolo[4,5-d]pyrimidine-5-amine]
> 200 °C (dec.)	Nc1nc(-c2ccco2)c2nnn(Cc3ccc(N)c(F)c3)c2n1 [Example 147, 3-(4-amino-3-fluorobenzyl)-7-(2-furyl)-3H-[1,2,3]triazolo[4,5-d]pyrimidine-5-amine]
258.8 to 259 °C	Cc1c(Cn2nnc3c(-c4ccco4)nc(N)nc32)cccc1[N+](=O)[O-] [Example 88, 7-(2-furyl)-3-(2-methyl-3-nitrobenzyl)-3H-[1,2,3]triazolo[4,5-d]pyrimidine-5-amine]
252.9 to 253 °C	CNC(=O)c1cccc(Cn2nnc3c(-c4ccc(C)o4)nc(N)nc32)c1 [Example 67, 3-(5-amino-7-(5-methyl-2-furyl)-3H-[1,2,3]triazolo[4,5-d]pyrimidin-3-ylmethyl)-N-methylbenzamide]
289.1 to 289.3 °C	Nc1nc(-c2ccco2)c2nnn(Cc3cc4ccccc4[nH]3)c2n1 [Example 207, 3-(2-indolylmethyl)-7-(2-furyl)-3H-[1,2,3]triazolo[4,5-d]pyrimidine-5-amine]
> 250 °C (dec.)	NCc1ccccc1Cn1nnc2c(-c3ccco3)nc(N)nc21 [Example 161, 3-(2-aminomethylbenzyl)-7-(2-furyl)-3H-[1,2,3]triazolo[4,5-d]pyrimidine-5-amine]
149 to 149.6 °C	Nc1nc(-c2ccccc2)c2nnn(Cc3cccc([N+](=O)[O-])c3)c2n1 [Example 130, 3-(3-nitrobenzyl)-7-phenyl-3H-[1,2,3]triazolo[4,5-d]pyrimidine-5-amine]
205 to 205.3 °C	Cc1ccc(-c2nc(N)nc3c2nnn3Cc2cccc(-c3ccccc3)n2)o1 [Example 82, 7-(5-methyl-2-furyl)-3-(6-phenyl-2-pyridylmethyl)-3H-[1,2,3]triazolo[4,5-d]pyrimidine-5-amine]
174 to 174.2 °C	Nc1nc(-c2cccs2)c2nnn(Cc3ccccc3F)c2n1 [Example 35, 3-(2-fluorobenzyl)-7-(2-thienyl)-3H-[1,2,3]triazolo[4,5-d]pyrimidine-5-amine]
190.4 to 190.8 °C	Nc1nc(-c2cncs2)c2nnn(Cc3cccc([N+](=O)[O-])c3)c2n1 [Example 45, 3-(3-nitrobenzyl)-7-(5-thiazolyl)-3H-[1,2,3]triazolo[4,5-d]pyrimidine-5-amine]
295.3 to 295.5 °C	Nc1nc(-c2ccco2)c2nnn(Cc3cccc4cc[nH]c34)c2n1 [Example 154, 7-(2-furyl)-3-(7-indolylmethyl)-3H-[1,2,3]triazolo[4,5-d]pyrimidine-5-amine]
298.9 to 299 °C	Nc1nc(-c2ccco2)c2nnn(Cc3ccc4cc[nH]c4c3)c2n1 [Example 152, 7-(2-Furyl)-3-(6-indolylmethyl)-3H-[1,2,3]triazolo[4,5-d]pyrimidine-5-amine]
256.7 to 257.1 °C	Nc1nc(-c2ccco2)c2nnn(Cc3ccc(Cl)c(N)c3)c2n1 [Example 114, 3-(3-amino-4-chlorobenzyl)-7-(2-furyl)-3H-[1,2,3]triazolo[4,5-d]pyrimidine-5-amine]
